Values quoted from earlier work, collected in patent US20140288136A1, “METHODS AND USES OF CYTOCHROME P450 INHIBITORS” (ANGION BIOMEDICA CORP, priority 2009, published 2014).
Read-outs that look alike come from different tables or passages of the source.

Test system: hepatitis C
Conditions: chronic hepatitis C infection

interferon
response (in combination with ribavirin): ~50%
response (used alone): ~20%
